Test results taken from PMC3969223, “Characterization of WZ4003 and HTH-01-015 as selective inhibitors of the LKB1-tumour-suppressor-activated NUAK kinases” (Biochemical Journal, 2013).

What was measured:
NUAK1+/+ MEFs = assay: Wound-healing (migration) assay; format: cell-based, mouse; settings: 10 μM
Experimental: MEFs were split and an approximately equal number of cells were loaded into the left and right chambers of the IBIDI Self-Insertion Inserts (catalogue number 80209). Each insert was placed in one well of a 12-well plate and the cells were seeded with or without treatment with the inhibitors. For the comparison of the migration properties of different MEFs on the same video, a single insert was used and an equal number of MEFs were counted and loaded on either chamber of the same insert. To study the effect of inhibitors on cell migration, wound-healing assays on MEFs were also carried out on separate inserts with or without treatment with a 10 μM concentration of WZ4003 or HTH-01-015. Inhibitors were added to the cells 1 h before the start of the migration assay. The experiments were carried out in triplicate. After overnight incubation at 37°C and 5% CO2, the insert was removed and the migration of cells into the 500 μm gap between the chambers was observed. The wound-gap healing properties of the cells were observed over a period of 15–20 h under a Nikon Eclipse Ti microscope with images taken every 2 min by a Photometrics cascade II CCD (charge-coupled device) camera using Nikon NIS Elements software.

U2OS cells = assay: Cell proliferation assay (CellTiter 96 AQueous); format: cell-based; settings: 10 μM, 5 days; same extent as shRNA-mediated NUAK1 knockdown
Experimental: (§1) Cell proliferation assays were carried out colorimetrically in 96-well plates using the CellTiter 96® AQueous Non-Radioactive Cell Proliferation Assay kit (Promega) following the manufacturer's protocol. Initially, 2000 cells per well were seeded for U2OS cells and 3000 cells per well were seeded for MEFs. The proliferation assays were carried out over 5 days in the presence or absence of 10 μM HTH-01-015 or WZ4003.

MEFs = assay: Cell proliferation assay (CellTiter 96 AQueous); format: cell-based, mouse; settings: 10 μM, 5 days; same extent as NUAK1-knockout
Experimental: as §1

[1] = tested on: ACC Ser79 phosphorylation; assay: ACC Ser79 phosphorylation on EDTA-induced detachment, HEK-293; format: cell-based, human; settings: HEK-293, 16 h
Experimental: (§2) HEK (human embryonic kidney)-293 and U2OS cells were cultured in DMEM (Dulbecco's modified Eagle's medium) supplemented with 10% FBS, 2 mM glutamine and 1×antibacterial/antimycotic solution. NUAK1^+/+ and NUAK1^−/− MEFs were cultured in DMEM supplemented with 10% (v/v) FBS and 2 mM glutamine, 1×antibacterial/antimycotic solution, 1% (v/v) non-essential amino acids and 1% (v/v) sodium pyruvate. HEK-293 Flp/In T-Rex cell lines were cultured in DMEM supplemented with 10% (v/v) FBS and 2 mM glutamine, 1×antibacterial/antimycotic solution, 100 μg/ml hygromycin and 15 μg/ml blasticidin. Supplementing the culture medium with 0.1 μg/ml doxycycline for 16–24 h induced protein expression in the HEK-293 Flp/In T-Rex cells. Cell counting was carried out using Invitrogen Countess following the manufacturer's protocol. A cell-detachment assay was carried out on HEK-293 cells using PBS-EDTA-based cell dissociation buffer as described previously. An inhibitor dose-dependence assay was carried out by treating the cells with various concentrations of the inhibitors as indicated in the Figure legends. The inhibitors were dissolved in DMSO and the total concentration of DMSO in the culture media never exceeded 1%. Transient transfections of HEK-293 cells were carried out using PEI [24]. Stable transfections were carried out in HEK-293 Flp/In T-Rex cells (Invitrogen) following the manufacturer's protocol. […]

[2] = tested on: MYPT1 Ser445 phosphorylation; assay: MYPT1 Ser445 phosphorylation, HEK-293 Flp/In T-Rex overexpressing wild-type HA-NUAK1; format: cell-based, human; settings: HEK-293 expressing wild-type NUAK1; 3–10 μM
Experimental: as §2

MYPT1 phosphorylation = MYPT1 phosphorylation on detachment, U2OS; format: cell-based; settings: 10 μM, 16 h
Experimental: Figure 7 NUAK1 inhibition suppresses cell proliferation (A) U2OS cells were incubated with or without 10 μM WZ4003 or 10 μM HTH-01-015 and a cell proliferation assay was carried out over 5 days in triplicate using the CellTiter 96® AQueous Non-Radioactive Cell Proliferation Assay kit (Promega) (as described in the Materials and methods section). U2OS cells in which NUAK1 has been knocked-down using two different shRNA hairpins were used in parallel as controls. The efficiency of the knock down of each shRNA is shown in top panel. SCR, control scrambled shRNA hairpin; shNUAK1 (1), first NUAK1 shRNA hairpin; shNUAK1 (2), second NUAK1 shRNA hairpin. (B) U2OS cells were treated with (+) or without (−) 10 μM WZ4003 or 10 μM HTH-01-015. After 16 h cell media was removed and cells were treated with EDTA-PBS-based cell dissociation buffer supplemented with 10 μM WZ4003, 10 μM HTH-01–015 or DMSO for 20 min. Cell detachment was induced with gentle tapping of the plates followed by gentle centrifugation at 70 g for 3 min. Cells were lysed immediately after removal of the media and immunoblotted for the detection of the indicated antibodies. (C and D) As above, except NUAK1^+/+ and NUAK1^−/− MEFs were used. Similar results were obtained in three separate experiments.

SMILES: Cc1nc(Nc2cnn(C3CCNCC3)c2)nc2c1N(C)C(=O)c1cc3ccccc3cc1N2C [HTH-01-015]
- Cell migration in wound-healing assay (in words) (NUAK1+/+ MEFs): markedly reduced cell migration
- Proliferation of U2OS cells (in words) (U2OS cells): suppressed proliferation
- Proliferation of MEFs (in words) (MEFs): suppressed proliferation
- Inhibition of ACC Ser79 phosphorylation induced by cell detachment (in words) [1]: neither compound inhibited
- Suppression of MYPT1 phosphorylation (in words) [2]: markedly suppressed
- Suppression of MYPT1 phosphorylation in U2OS cells (in words) (MYPT1 phosphorylation): to the same extent as shRNA-mediated NUAK1 knockdown

SMILES: CCC(=O)Nc1cccc(Oc2nc(Nc3ccc(N4CCN(C)CC4)cc3OC)ncc2Cl)c1 [WZ4003]
- Cell migration in wound-healing assay (in words) (NUAK1+/+ MEFs): markedly reduced cell migration
- Proliferation of U2OS cells (in words) (U2OS cells): suppressed proliferation
- Proliferation of MEFs (in words) (MEFs): suppressed proliferation
- Inhibition of ACC Ser79 phosphorylation induced by cell detachment (in words) [1]: neither compound inhibited
- Suppression of MYPT1 phosphorylation (in words) [2]: markedly suppressed
- Suppression of MYPT1 phosphorylation in U2OS cells (in words) (MYPT1 phosphorylation): to the same extent as shRNA-mediated NUAK1 knockdown
